# In the Kinase Knowledgebase extract (Sharma et al. 2016):
# “And” between values parts separate entries of the source, which are not always exact repeats. Equal entries are not always repeated.
# Experiments:
# EGFR (human) [1] = molecular target: EGFR (human) (UniProt P00533); conditions: a431
# EGFR (human) [2] = molecular target: EGFR (human) (UniProt P00533); conditions: dher14
# EGFR (human) [3] = molecular target: EGFR (human) (UniProt P00533); conditions: A431
# EGFR (human), sequence (P00533 whole entry, looked up): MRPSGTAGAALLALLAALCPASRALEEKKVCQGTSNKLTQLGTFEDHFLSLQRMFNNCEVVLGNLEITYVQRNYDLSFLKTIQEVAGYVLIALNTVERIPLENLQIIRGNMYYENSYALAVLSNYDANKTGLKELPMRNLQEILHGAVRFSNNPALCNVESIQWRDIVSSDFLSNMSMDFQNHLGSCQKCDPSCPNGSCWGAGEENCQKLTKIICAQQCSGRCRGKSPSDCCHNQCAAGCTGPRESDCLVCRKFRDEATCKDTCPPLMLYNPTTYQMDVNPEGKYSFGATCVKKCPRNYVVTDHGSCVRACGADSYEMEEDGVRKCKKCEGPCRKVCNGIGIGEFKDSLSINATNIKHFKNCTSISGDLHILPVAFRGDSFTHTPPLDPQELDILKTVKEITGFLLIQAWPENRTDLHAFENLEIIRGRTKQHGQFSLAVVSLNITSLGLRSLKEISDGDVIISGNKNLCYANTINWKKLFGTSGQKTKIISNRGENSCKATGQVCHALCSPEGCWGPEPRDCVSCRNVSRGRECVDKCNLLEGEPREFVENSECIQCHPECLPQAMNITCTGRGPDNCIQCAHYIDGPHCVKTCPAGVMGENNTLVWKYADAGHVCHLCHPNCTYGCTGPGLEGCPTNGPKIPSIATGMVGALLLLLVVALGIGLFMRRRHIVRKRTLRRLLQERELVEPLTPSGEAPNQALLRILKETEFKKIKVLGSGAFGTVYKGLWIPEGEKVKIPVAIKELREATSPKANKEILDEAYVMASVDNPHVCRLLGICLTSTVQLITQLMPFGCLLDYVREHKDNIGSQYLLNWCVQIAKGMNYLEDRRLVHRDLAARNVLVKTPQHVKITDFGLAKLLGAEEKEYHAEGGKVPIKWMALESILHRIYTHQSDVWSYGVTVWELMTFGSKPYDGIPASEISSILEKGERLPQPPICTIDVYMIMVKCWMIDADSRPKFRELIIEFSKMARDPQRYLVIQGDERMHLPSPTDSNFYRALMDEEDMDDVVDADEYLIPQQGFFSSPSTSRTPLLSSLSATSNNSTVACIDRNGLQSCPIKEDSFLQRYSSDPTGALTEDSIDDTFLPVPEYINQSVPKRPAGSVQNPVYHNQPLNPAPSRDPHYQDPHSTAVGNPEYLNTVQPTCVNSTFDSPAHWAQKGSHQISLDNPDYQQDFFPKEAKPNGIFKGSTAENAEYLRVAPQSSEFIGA
IC50 (EGFR (human) [1]),IC50 (EGFR (human) [2]) [nM],IC50 (EGFR (human) [3]) [nM],Structure (SMILES)
3 to 5 nM,–,–,COc1cc2ncnc(Nc3cc(Cl)c(Cl)cc3F)c2cc1OC
1000 to 5000 nM,–,–,COCC(=O)Nc1ccc2ncnc(Nc3cccc(I)c3)c2c1
6.7 to 20 nM,–,–,C=CC(=O)Nc1ccc2ncnc(Nc3cc(Cl)c(Cl)cc3F)c2c1
1000 to 10000 nM,> 250,–,COCC(=O)Nc1ccc2ncnc(Nc3cc(Cl)c(Cl)cc3F)c2c1
50 to 250 nM,–,500 to 13000,C=CC(=O)Nc1cc2c(Nc3cccc(Br)c3)ncnc2cc1N1CCN(C)CC1
5 to 25 nM and 25 to 50 nM,–,–,O=C(CCl)Nc1ccc2ncnc(Nc3cc(Cl)c(Cl)cc3F)c2c1
